Measured values taken from publication PMC6089501 (Journal of Medicinal Chemistry, 2018).
Values after ≈ are worked out from the molar mass of the structure shown. Values joined by “and” are separate entries in the source; they are usually repeats but may differ in a detail not shown here. Equal entries are not always repeated. Where two headings read alike, the source gives them in different places.

How the values were obtained:
[1] = for Cli mouse / scaled Clpre: female, CD1, mouse, pH 7.4
[2] = system: Madin Darby Canine Kidney (MDCK); details: for P-glycoprotein (P-gp) efflux (in words) / permeability (in words): MDCK-MDR1; for P-gp Efflux B→ A/A → B: dog, MDCK
[3] = microsomes
Vero cells [4] = test: cells; details: Chlorocebus sabaeus, read-out: VERO IC50
Procedure: (§1) Compounds were solubilized in DMSO and assayed as a 10-point 3-fold serial dilution. Compounds were incubated with cells for 2 days at 37 °C, 5% CO2. CellTiter-Glo Reagent (Promega) was added and relative luminescent units (RLU) measured.

M. tuberculosis H37Rv [5] = test: microbe, parasite or virus in culture; type: cell-based, Mycobacterium tuberculosis; details: for MIC / MIC90 / IC90: Mycobacterium tuberculosis, H37RV; for MIC90: read-out: MIC (MIC90); for IC90: read-out: TB-IC90_OD GEOM_MEAN
[6] = female, C57 Black, mouse, in vivo, iv, 3 mg/kg
Procedure: (§2) Test compound was dosed as a bolus solution intravenously at 3 mg of free base/kilogram (dose volume 5 mL/kg; dose vehicle Saline or 10% DMSO; 40% PEG400; 50% saline) to female C57 Black (n = 3) or dosed orally by gavage as a solution at 10 mg of free base/kilogram (dose volume 10 mL/kg; dose vehicle 10% DMSO; 40% PEG400; 50% distilled water) to female C57 Black (n = 3/dose level). Blood samples were taken from each mouse tail vein at predetermined time points postdose, mixed with two volumes of distilled water, and stored frozen until UPLC/MS/MS analysis. Pharmacokinetic parameters were derived from the blood concentration time curve using PK Solutions software v 2.0 (Summit Research Services, USA).

CYP 1A2 = molecular target: T1, CYP 1A2 (Homo sapiens, UniProt P05177); test: CYP inhibition 1A2
T1 sequence (P05177 1-516): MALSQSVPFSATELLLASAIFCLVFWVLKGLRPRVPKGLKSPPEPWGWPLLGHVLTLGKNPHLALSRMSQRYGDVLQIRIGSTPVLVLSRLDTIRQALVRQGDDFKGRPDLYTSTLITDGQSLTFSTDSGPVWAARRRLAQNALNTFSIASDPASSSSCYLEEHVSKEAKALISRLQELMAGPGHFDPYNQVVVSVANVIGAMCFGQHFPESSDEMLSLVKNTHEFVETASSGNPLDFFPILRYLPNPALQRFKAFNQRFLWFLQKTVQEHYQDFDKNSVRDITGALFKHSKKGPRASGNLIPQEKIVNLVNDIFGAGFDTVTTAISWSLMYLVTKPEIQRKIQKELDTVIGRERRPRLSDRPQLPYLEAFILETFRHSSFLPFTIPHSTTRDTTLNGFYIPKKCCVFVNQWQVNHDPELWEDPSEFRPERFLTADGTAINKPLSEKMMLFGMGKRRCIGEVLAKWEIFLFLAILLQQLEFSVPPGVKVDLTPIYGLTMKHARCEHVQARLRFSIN

CYP2C9 = CYP2C9 (Homo sapiens, UniProt P11712); test: in vitro
CYP2C9, sequence (P11712 whole entry): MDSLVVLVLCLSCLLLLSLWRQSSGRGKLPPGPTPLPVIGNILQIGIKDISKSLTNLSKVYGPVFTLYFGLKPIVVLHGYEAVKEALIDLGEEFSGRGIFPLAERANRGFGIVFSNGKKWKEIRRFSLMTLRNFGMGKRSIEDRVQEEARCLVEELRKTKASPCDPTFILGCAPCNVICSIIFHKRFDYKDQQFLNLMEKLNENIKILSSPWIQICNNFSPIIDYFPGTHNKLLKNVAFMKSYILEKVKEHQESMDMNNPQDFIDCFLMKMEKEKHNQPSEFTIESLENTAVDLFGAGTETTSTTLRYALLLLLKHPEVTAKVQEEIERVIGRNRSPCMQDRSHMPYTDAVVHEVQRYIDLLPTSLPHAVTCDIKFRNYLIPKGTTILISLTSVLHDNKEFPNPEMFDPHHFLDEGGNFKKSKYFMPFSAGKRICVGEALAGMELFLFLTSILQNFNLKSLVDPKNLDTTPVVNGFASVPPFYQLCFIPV

in vivo [7] = details: female, C57 Black, mouse; for AUC: iv, 3 mg/kg; for bioavailability: po, 10 mg/kg
Procedure: as §2

CYP 2D6 = CYP 2D6 (Homo sapiens, UniProt P10635); test: biochemical
CYP 2D6, sequence (P10635 whole entry): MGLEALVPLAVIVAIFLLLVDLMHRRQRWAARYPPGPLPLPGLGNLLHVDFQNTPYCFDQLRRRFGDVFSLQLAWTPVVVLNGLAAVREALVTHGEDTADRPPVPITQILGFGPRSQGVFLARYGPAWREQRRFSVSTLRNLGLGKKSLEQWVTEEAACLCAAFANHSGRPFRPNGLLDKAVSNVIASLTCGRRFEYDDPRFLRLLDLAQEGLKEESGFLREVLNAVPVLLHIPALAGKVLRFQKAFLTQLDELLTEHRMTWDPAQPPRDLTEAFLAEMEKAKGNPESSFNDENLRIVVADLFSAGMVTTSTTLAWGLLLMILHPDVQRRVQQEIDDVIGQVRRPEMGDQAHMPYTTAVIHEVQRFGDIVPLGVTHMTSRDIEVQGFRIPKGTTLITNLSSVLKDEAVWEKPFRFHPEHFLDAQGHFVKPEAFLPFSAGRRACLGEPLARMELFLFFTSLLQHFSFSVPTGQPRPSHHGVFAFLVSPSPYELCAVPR

CYP2C19 = CYP2C19 (Homo sapiens, UniProt P33261); test: in vitro
CYP2C19, sequence (P33261 whole entry): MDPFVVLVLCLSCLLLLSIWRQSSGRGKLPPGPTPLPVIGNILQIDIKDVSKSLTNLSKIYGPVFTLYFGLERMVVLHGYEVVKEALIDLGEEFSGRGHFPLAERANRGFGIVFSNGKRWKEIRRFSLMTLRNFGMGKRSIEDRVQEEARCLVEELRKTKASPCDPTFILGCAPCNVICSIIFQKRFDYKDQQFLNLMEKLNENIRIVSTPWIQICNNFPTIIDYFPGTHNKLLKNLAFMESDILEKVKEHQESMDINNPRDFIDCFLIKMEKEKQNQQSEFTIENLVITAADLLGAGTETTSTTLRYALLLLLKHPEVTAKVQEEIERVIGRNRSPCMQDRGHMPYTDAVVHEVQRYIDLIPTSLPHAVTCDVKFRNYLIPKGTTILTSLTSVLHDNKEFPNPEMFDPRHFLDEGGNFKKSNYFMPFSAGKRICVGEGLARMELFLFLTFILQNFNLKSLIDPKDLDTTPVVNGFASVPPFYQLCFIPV

in vitro [8] = details: dog, MDCK-MDR1
in vitro [9] = details: African green monkey, Vero cytotoxicity
Procedure: as §1

in vivo [10] = details: Sprague-Dawley, rat; for AUC(0-t) at 24 h: AUC 0–24
Procedure: (§3) Test compound was dosed orally by gavage at 5 mg of free base/kilogram (dose volume 5 mL/kg; dose vehicle 1.0% carboxy methyl cellulose, CMC) to male Sprague–Dawley Rats (n = 1 per time point). At predetermined time points, blood samples (100 μL) were taken from the hepatic portal vein into a tube containing EDTA. Immediately afterward, the remaining blood was taken by cardiac puncture into a separate tube containing EDTA to determine the concentration of compound reaching the systemic circulation. The blood was mixed with two volumes of distilled water and stored frozen until UPLC/MS/MS analysis. Pharmacokinetic parameters were derived from the blood concentration time curve using PK Solutions software v 2.0 (Summit Research Services, USA).

[11] = pH 2/6/7.4
Procedure: (§4) Samples are stirred for 20 h and filtered through a 0.7 μm GF filter. The filtrate was analyzed by HPLC assay for concentration against DMSO standard curve.[40]

physchem [12] = test: physchem
physchem [13] = test: physchem; remark: listed apart in the source
Procedure: as §4

[14] = C57 Black, mouse, in vivo, po
Procedure: Analysis of 37 in Mouse Blood samples (10mg/kg PO and 3mg/kg IV)

M. tuberculosis H37Rv [15] = system: M. tuberculosis H37Rv; design: species or system Mycobacterium tuberculosis; details: in vivo
Vero cells [16] = details: read-out: VERO IC50
Procedure: as §1

[17] = Sprague-Dawley, rat, in vivo
Procedure: as §3

NC(=O)c1sc(N2CCOCC2)cc1OCCc1ccccc1 [Compound 1, 5-Morpholino-3-phenethoxythiophene-2-carboxamide]
Cli mouse [1]: 19 mL.min^–1.g^–1 | scaled Clpre [1]: 81 mL/min/kg | CL mouse MEAN ([1]; mouse, microsomes): 18.63 mL/min/g | Microsomal clearance, Mouse ([1]; mouse, microsomes): Mouse = 19 mL·min^−1·g^−1 | in vitro mouse Clint ([1]; mouse, microsomes): 19 mL/min/g | P-glycoprotein (P-gp) efflux (in words) [2]: no likely P-glycoprotein (P-gp) efflux issues | permeability (in words) [2]: good permeability | P-gp Efflux B→ A/A → B [2]: 0.8 | Microsomal clearance, Human [3]: Human = 3.5 mL·min^−1·g^−1 | IC50 (Vero cells [4]): > 100 µM | MIC (M. tuberculosis H37Rv [5]; read-out: H37Rv MIC): 0.13 µg/mL | MIC90 (M. tuberculosis H37Rv [5]): 0.72 µM (≈ 0.239 µg/mL) | MIC (M. tuberculosis H37Rv [5]; read-out: MIC WT): 1.3 µM | IC90 (M. tuberculosis H37Rv [5]): 608 nM | MIC (H37RvLP) (M. tuberculosis H37Rv [5]; n = 14): 0.72 ± 0.30 (n = 14) | CLB [6]: 10 mL/min/kg | T1/2 [6]: 42 min | IC50 (CYP 1A2): > 10 µM | IC50 (CYP2C9): 7.94 µM | AUC (in vivo [7]): 4830 ng·h/mL | bioavailability (in vivo [7]): 0.5% | IC50 (CYP 2D6): 10 µM | IC50 (CYP2C19): 1260 nM | Papp A→B (in vitro [8]): 45 ×10⁻⁶ cm/s | Papp B→A (in vitro [8]): 37 ×10⁻⁶ cm/s | IC50 (in vitro [9]): > 100 µM

NC(=O)c1sc(N2CCOCC2)cc1OCCc1ccc(OC(F)(F)F)cc1 [Compound 37, 5-Morpholino-3-[2-[4-(trifluoromethoxy)phenyl]ethoxy]thiophene-2-carboxamide]
AUC(0-t) at 24 h (in vivo [10]; iv, 1 mg/kg): 550 ng·h/mL | Tmax (in vivo [10]; male, po, 5 mg/kg): 1 h | AUC(0-t) at 24 h (in vivo [10]; male, po, 5 mg/kg): 583 ng·h/mL | Cmax (in vivo [10]; male, po, 5 mg/kg, Cmax): 200 ng/mL | Cli mouse [1]: 8 mL.min^–1.g^–1 | scaled Clpre [1]: 76 mL/min/kg | CL mouse MEAN ([1]; mouse, microsomes): 8.159 mL/min/g | in vitro mouse Clint ([1]; mouse, microsomes): 8 mL/min/g | P-glycoprotein (P-gp) efflux (in words) [2]: no likely P-glycoprotein (P-gp) efflux issues | permeability (in words) [2]: good permeability | P-gp Efflux B→ A/A → B [2]: 0.8 | solubility in HTSA (in words) [11]: poor solubility | IC50 (Vero cells [4]): 39 µM | chromatographic logD (physchem [12]): 2.68 | solubility (physchem [13]; pH 2): 2 µg/mL (≈ 4.8 µM) | solubility (physchem [13]; pH 6): 1 µg/mL (≈ 2.4 µM) | solubility (physchem [13]; pH 7.4): 1 µg/mL (≈ 2.4 µM) | % Peak Area, metabolite A N or S-oxide [14]: 3% | % Peak Area, metabolite B De-ethylation + oxidation [14]: 3% | % Peak Area, metabolite C De-ethylation [14]: 2% | % Peak Area, metabolite D Oxidation (x3) [14]: 6% | % Peak Area, metabolite E Hydroxylation [14]: 27% | MIC (M. tuberculosis H37Rv [5]; read-out: H37Rv MIC): 0.083 µg/mL | MIC90 (M. tuberculosis H37Rv [5]): 0.24 µM (≈ 0.0999 µg/mL) | MIC (M. tuberculosis H37Rv [5]; read-out: MIC WT): 0.24 µM | IC90 (M. tuberculosis H37Rv [5]): 217 nM | CLB [6]: 29 mL/min/kg | growth of the bacteria in the lungs compared to untreated mice (in words) (M. tuberculosis H37Rv [15]): able to inhibit the growth of the bacteria in the lungs | log CFUs per mouse (lungs), individual mice (M. tuberculosis H37Rv [15]): 6.1 log CFU and 5.8 log CFU | log CFUs per mouse (lungs), mean (M. tuberculosis H37Rv [15]): 6.0 log CFU | log reduction of colony forming unit (CFU) counts in the lungs (M. tuberculosis H37Rv [15]; po, 100 mg/kg): 0.8 log | IC50 (Vero cells [16]): 37 µM | AUC (in vivo [7]): 1730 ng·h/mL | bioavailability (in vivo [7]): 18% | Clb ([17]; iv, 1 mg/kg): 30 | T1/2 ([17]; iv, 1 mg/kg): 30 min | Cmax ([17]; male, po, 5 mg/kg): 140 ng/mL | F ([17]; male, po, 5 mg/kg): 12% | AUC 0–24 ([17]; male, po, 5 mg/kg, 24 h): 19 | Papp A→B (in vitro [8]): 25 ×10⁻⁶ cm/s | Papp B→A (in vitro [8]): 20 ×10⁻⁶ cm/s
